Measured values from patent US9777002B2, “Inhibitors of the renal outer medullary potassium channel” (Merck Sharp & Dohme Corp., priority 2012, dated 2017).

Assays:
Kir1.1 (ROMK1) = biological target: T1, Kir1.1 (ROMK1) (Homo sapiens, UniProt P48048); assay: Electrophysiology Assay (whole cell voltage clamp, IonWorks Quattro); type: cell-based; conditions: Chinese hamster ovary cells stably expressing Kir1.1; block during voltage step to 0 mV
T1 construct: expressed in transfected cells; expression induced with sodium butyrate
T1 sequence (P48048 1-391): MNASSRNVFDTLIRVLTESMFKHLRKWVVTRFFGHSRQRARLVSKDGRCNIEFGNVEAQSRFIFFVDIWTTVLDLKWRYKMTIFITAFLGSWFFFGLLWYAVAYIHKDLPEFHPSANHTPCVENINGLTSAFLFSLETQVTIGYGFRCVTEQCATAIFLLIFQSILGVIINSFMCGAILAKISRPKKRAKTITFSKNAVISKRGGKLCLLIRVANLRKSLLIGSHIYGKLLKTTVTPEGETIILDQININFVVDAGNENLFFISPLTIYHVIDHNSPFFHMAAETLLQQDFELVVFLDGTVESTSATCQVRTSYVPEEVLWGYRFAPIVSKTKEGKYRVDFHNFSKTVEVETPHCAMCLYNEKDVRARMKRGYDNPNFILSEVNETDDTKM
Protocol: Block of Kir1.1 (ROMK1) currents was examined by whole cell voltage clamp (Hamill et. al. Pfluegers Archives 391:85-100 (1981)) using the IonWorks Quattro automated electrophysiology platform (Molecular Devices, Sunnyvale, Calif.). Chinese hamster ovary cells stably expressing Kir1.1 channels were maintained in T-75 flasks in cell culture media in a humidified 10% CO2 incubator at 37° C. Prior to an experiment, Kir1.1 expression was induced by overnight incubation with 1 mM sodium butyrate. On the day of the experiment, cells were dissociated with 2.5 mL of Versene (Invitrogen 15040-066) for approximately 6 min at 37° C. and suspended in 10 mL of bath solution containing (in mM): 150 NaCl, 10 KCl, 2.7 CaCl2, 0.5 MgCl2, 5 HEPES, pH 7.4. After centrifugation, the cell pellet was resuspended in approximately 4.0 mL of bath solution and placed in the IonWorks instrument. The intracellular solution consisted of (in mM): 80 K gluconate, 40 KCl, 20 KF, 3.2 MgCl2, 3 EGTA, 5 Hepes, pH 7.4. Electrical access to the cytoplasm was achieved by perforation in 0.13 mg/mL amphotericin B for 4 min. Amphotericin B (Sigma A-4888) was prepared as a 40 mg/mL solution in DMSO. Voltage protocols and current recordings were performed using the IonWorks HT software/hardware system. Currents were sampled at 1 kHz. No correction for liquid junction potentials was used. The test pulse, consisting of a 100 ms step to 0 mV from a holding potential of −70 mV, followed by a 100 ms voltage ramp from −70 mV to +70 mV, was applied before and after a 6 min compound incubation period. Test compounds were prepared by diluting DMSO stock solutions into the bath solution at 3× the final concentration and placed in the instrument in 96-well polypropylene plates. Current amplitudes were measured using the IonWorks software. To assess compound potency, the fractional block during the voltage step to 0 mV was calculated in Microsoft Excel (Microsoft, Redmond, Calif.), and dose-response curves were fitted with Igor Pro 4.0 (WaveMetrics, Lake Oswego, Oreg.). Normally, a control compound is included to support that the assay is giving consistent results compared to previous measurements, although the control is not required to obtain the results for the test compounds.

hROMK (hKir1.1) = biological target: T2, hROMK (hKir1.1) (Homo sapiens, UniProt P48048); assay: Thallium Flux Assay; type: cell-based; conditions: HEK293 cells stably expressing hROMK (hKir1.1)
T2 construct: expressed in transfected cells
T2 sequence (P48048 1-391): T1 sequence (P48048 1-391)
Summary of the method: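 HEK293 cells stably expressing hROMK were loaded with FluxOR dye for 90 min, then incubated with compound in probenecid assay buffer plus 0.3 mM ouabain, pH 7.4, for 30 min at 23-25 °C. Flux was triggered with 3 mM thallium/0.3 mM potassium (final) and read on FLIPR-Tetra for ~10 min. IC50 was calculated against the signal blocked by 3 μM control inhibitor.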

Row | Structure (SMILES) | IC50 (Kir1.1 (ROMK1)) | IC50 (hROMK (hKir1.1))
1 | Cc1c(CCN2CCC(NC(=O)c3ccc4c(c3)COC4=O)CC2)ccc2c1COC2=O [Example 1, N-(1-(2-(4-Methyl-1-oxo-1,3-dihydroisobenzofuran-5-yl)ethyl)piperidin-4-yl)-1-oxo-1,3-dihydroisobenzofuran-5-carboxamide] | 40 nM | 10 nM
2 | Cc1c(CCN2CCC(NC(=O)c3ccc(C#N)cc3S(C)(=O)=O)CC2)ccc2c1COC2=O [Example 29, 4-Cyano-N-(1-(2-(4-methyl-1-oxo-1,3-dihydroisobenzofuran-5-yl)ethyl)piperidin-4-yl)-2-(methylsulfonyl)benzamide] | 240 nM | 1230 nM
3 | Cc1c([C@@H](O)CN2CCC(C)(NC(=O)c3ccc(C#N)cn3)CC2)ccc2c1COC2=O [Example 40, (R)-5-Cyano-N-(1-(2-hydroxy-2-(4-methyl-1-oxo-1,3-dihydroisobenzofuran-5-yl)ethyl)-4-methylpiperidin-4-yl)picolinamide] | 630 nM | 1320 nM
4 | Cc1c(CCN2CCC(NC(=O)c3ccc(F)c(C#N)c3)CC2)ccc2c1COC2=O [Example 12, 3-Cyano-4-fluoro-N-(1-(2-(4-methyl-1-oxo-1,3-dihydroisobenzofuran-5-yl)ethyl)piperidin-4-yl)benzamide] | 120 nM | 1000 nM
